Consider six molecules from patent publication EP4772530A1, “PEPTIDE TARGETING SOMATOSTATIN RECEPTOR, DRUG CONJUGATE AND USE THEREOF” (Mainline Biosciences (Shanghai) Co., Ltd., priority 2023, dated 2025).

The target in one experiment is T1, SSTR2 (Homo sapiens, UniProt P30874).
T1 construct: expressed in transfected cells; host or cells: CHO cells (SSTR2/CHO)
As to the kind of experiment: SSTR2 cAMP test. The note with it: for EC50: SSTR2/CHO cells, Forskolin, cAMP activation rate; for activity at 50 µM: Max Dose 50000 nM. It counts as cell-based. The procedure:
• 1) Compound preparation: The test compound was diluted by 4-fold with DMSO to obtain 10 different concentration points. Approximately 100 nL of the diluted compound was then transferred to a cell reaction plate and centrifuged for later use. • 2) Cell preparation:The cultured SSTR2/CHO cells were collected into a sterile centrifuge tube, and the supernatant was discarded by centrifugation. • 3) The cells were resuspended in assay buffer, counted using a Vi-cell counter, and diluted with assay buffer. • 4) Approximately 100 nL of 100 µM Forskolin was transferred into the cell reaction plate using an Echo and centrifuged. Then, 10 µL of assay buffer containing the cells was added and incubated. • 5) Approximately 10 µL of cAMP detection reagent solution was added to the corresponding wells of the cell reaction plate, and incubated at room temperature in the dark. • 6) The plate was read using a microplate reader. The final value was determined as the ratio of OD at 665 nm to that at 615 nm. • 7) The cAMP value was calculated for each well: Activity (%)=(signal value of sample well - mean signal value of low-signal control wells)/ (mean signal value of high-signal control wells - mean signal value of low-signal control wells). Fitting was performed using the "Nonlinear regression (curve fit)-log(agonist) vs. response -- Variable slope" model in GraphPad Prism 5.0, with the log-transformed compound concentration on the x-axis and cAMP activation rate on the y-axis. The EC50 value of the sample was calculated accordingly. Table 2: SSTR2 cAMP Test Results

Experiment [1] relates to Human multiple myeloma MM.1S cells. As to the kind of experiment: EX3.3 in vivo pharmacodynamics, MM.1S subcutaneous xenograft model. Details: species or system CB17 SCID mice. The note with it: for Tumor Volume (Mean ± SEM): Ixazomib Citrate 4 mg/kg, Oral Gavage, Twice Weekly. The procedure: Human multiple myeloma MM.1S cells were suspended and cultured in vitro in 1640 medium containing 10% fetal bovine serum, 100 U/mL penicillin, and 100 µg/mL streptomycin in a 5% CO2 incubator at 37°C. The suspended cells were collected by centrifugation twice a week and adherent cells were digested with trypsin-EDTA to prepare a cell suspension for subculture. When the cell saturation was 80%-90% and the cell number reached the requirement, the cells were collected, counted, and inoculated.
CB17 SCID mice, female, 6-8 weeks old, weighing 18-22 g, provided by Zhejiang Vital River Laboratory Animal Technology Co., Ltd.
Each mouse was subcutaneously injected with 100 µL of PBS containing 5×10^6 MM.1S cells + 100 µL of Matrigel (final volume: 200 µL) at the axilla of the right forelimb. At 20 days after injection, when the average tumor volume reached 109 mm^3, mice were grouped for dosing (vehicle control,Ixazomib Citrate, and Example 1 treatment groups, with 6 animals per group). The Ixazomib Citrate group was orally administered by gavage (4 mg/kg) twice a week; the vehicle control group (5%DMSO + 95% normal saline) and the Example 1 treatment group (1.75 mg/kg) were slowly intravenously injected for about 30 seconds each time, twice a week.
The experimental indicators were used to investigate whether tumor growth was inhibited, delayed, or cured. The tumor diameter was measured twice a week using a vernier caliper. The tumor volume was calculated as follows: V = 0.5a×b^2, where a and b were the long and short diameters of the tumor, respectively.
The anti-tumor efficacy of the drug was evaluated based on TGI (%) or relative tumor proliferation rate T/C (%). TGI (%) was the tumor growth inhibition rate. TGI (%) was calculated as follows: TGI (%)=[(1 -(mean tumor volume at the end of dosing in a certain treatment group - mean tumor volume at the start of dosing in the treatment group))/ (mean tumor volume at the end of dosing in the vehicle control group - mean tumor volume at the start of dosing in the vehicle control group)]× 100%.
T/C (%) was calculated as follows:T/C (%)= TRTV/ CRTV× 100 %. Based on the results of tumor measurement, the relative tumor volume (RTV) was calculated as follows: RTV = Vt/V0, where V0 was the mean tumor volume measured at the time of grouping (i.e. d0), and Vt was the mean tumor volume at a certain measurement. Data on the same day were taken for TRTV and CRTV.
Tumor weights were measured at the end of the experiment and T/Cweight was calculated, where Tweight and Cweight were tumor weights in the treatment and vehicle control groups, respectively.
Statistical analysis, including the mean and standard error (SEM) of tumor volume at each time point in each group (see Table 5-1 in Section 5.2 for specific data), was performed to evaluate differences between groups based on data from the treatment group on Day 18 post-dose at the end of the experiment. A t-test was used for comparison between two groups, and one-way ANOVA was used for comparison among three or more groups. If there was a significant difference in F value, the Games-Howell method was used for testing; if there was no significant difference in F value, the Dunnet (2-sided) method was used for analysis. All data were analyzed using SPSS 17.0.

The mark [2] stands for this setting: 18 days after the start of dosing, Ixazomib Citrate 4 mg/kg oral gavage twice a week.

Molecules are shown by their SMILES. Where “and” joins values, the source holds several entries; their conditions need not be identical. Identical values can stand only once. Counter-ions that a name gives are not always drawn. *1 amine or outer side, *2 acyl side, *3 side chain or, on linkers, in order; H or OH if unused. Where a SMILES comes first, the peptide text is derived from it. Bridges are numbered along the chain shown (N, C = ends). Roman numbers before positions name the chains, in order. [ ]: non-standard residue; d: D form. The star is where a group is joined. Hexanoyl(6-succinimido-3yl) = O=C1CC([*:1])C(=O)N1CCCCCC(=O)[*:2]; Dolaproine = CO[C@@H]([C@@H]1CCCN1)[C@@H](C)C(=O)O; Dil = CC[C@H](C)[C@H](NC)[C@@H](CC(=O)O)OC; PABC = O=C(OCc1ccc(N[*:1])cc1)[*:2]; PEG6 = NCCOCCOCCOCCOCCOCCOCCC(=O)O; X2 = C[C@@H](N*)[C@@H](O)c1ccccc1; Cit = NC(=O)NCCC[C@H](N)C(=O)O; NMeV = CN[C@H](C(=O)O)C(C)C; AEEA = NCCOCCOCC(=O)O

T1 sequence (P30874 whole entry): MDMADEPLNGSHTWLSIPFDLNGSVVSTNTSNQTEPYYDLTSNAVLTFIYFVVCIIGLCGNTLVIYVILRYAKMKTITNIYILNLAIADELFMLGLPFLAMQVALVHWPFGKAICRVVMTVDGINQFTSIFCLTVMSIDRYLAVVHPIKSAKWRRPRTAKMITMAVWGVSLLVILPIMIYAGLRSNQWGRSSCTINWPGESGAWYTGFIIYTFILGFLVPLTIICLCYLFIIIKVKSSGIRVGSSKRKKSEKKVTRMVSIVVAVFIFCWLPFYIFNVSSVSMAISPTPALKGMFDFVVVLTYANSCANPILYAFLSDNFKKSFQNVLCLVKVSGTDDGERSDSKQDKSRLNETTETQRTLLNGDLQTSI

Consider `C[C@@H](O)[C@@H]1NC(=O)[C@H](CCCCN)NC(=O)[C@H](Cc2c[nH]c3ccccc23)NC(=O)[C@H](Cc2ccccc2)NC(=O)[C@H](Cc2ccccc2)NC(=O)[C@H](CC(N)=O)NC(=O)[C@H](CCCCN)NC(=O)[C@@H](NC(=O)[C@@H]2CCCN2)CSSC[C@@H](C(=O)N[C@@H](CCCCN)C(=O)O)NC(=O)[C@H](CO)NC(=O)[C@H](CO)NC(=O)[C@H](Cc2ccccc2)NC1=O` [Cortistatin14, reference compound] (H-PCKNFFWKTFSSCK-OH; disulfide 2-13), for which, on SSTR2 (Max Dose 1000 nM), the activity at 1 µM is 99.7%. For the same molecule, on SSTR2, the EC50 (commonly the concentration at which the effect is half-maximal) amounted to 1.38 nM.

At SSTR2, `CC[C@H](C)[C@@H]([C@@H](CC(=O)N1CCC[C@H]1[C@H](OC)[C@@H](C)C(=O)N[C@H](C)[C@@H](O)c1ccccc1)OC)N(C)C(=O)[C@@H](NC(=O)[C@H](C(C)C)N(C)C(=O)OCc1ccc(NC(=O)[C@H](CCCNC(N)=O)NC(=O)[C@@H](NC(=O)CCCCCN2C(=O)CC(SC[C@H](NC(=O)CCOCCOCCOCCOCCOCCOCCN)C(=O)NCCOCCOCCOCCOCCOCCOCCC(=O)N[C@@H](CCCNC(=N)N)C(=O)N[C@@H](CCCNC(=N)N)C(=O)N[C@@H](CC(C)C)C(=O)N[C@@H](Cc3ccccc3)C(=O)N[C@H]3CSSC[C@@H](C(=O)N[C@H](C(=O)N[C@@H](Cc4c[nH]c5ccccc45)C(=O)N[C@@H](CCCNC(=N)N)C(=O)N[C@@H](CC(=O)O)C(N)=O)[C@@H](C)O)NC(=O)[C@H]([C@@H](C)O)NC(=O)[C@H](CCCCN)NC(=O)[C@@H](Cc4c[nH]c5ccccc45)NC(=O)[C@H](Cc4ccc(O)cc4)NC3=O)C2=O)C(C)C)cc1)C(C)C` (stereo partly drawn) [Example 2, PEG6-Cys(MC-Val-Cit-PABC-MMAE)-PEG6-Arg-Arg-Leu-Phe-[Cys-Tyr-D-Trp-Lys-Thr-Cys]-Thr-Trp-Arg-Asp-NH2] (I: H-[PEG6]C[PEG6]RRLFCY[dW]KTCTWRD-NH2 / II: V[Cit][PABC][NMeV]V[Dil][Dolaproine]-X2; linker I:2-II:N via Hexanoyl(6-succinimido-3yl); disulfide I:8-I:13) had an activity at 50 µM of 95.4% and a concentration for a half-maximal effect (EC50) of 477 nM.

`CC[C@H](C)[C@@H]([C@@H](CC(=O)N1CCC[C@H]1[C@H](OC)[C@@H](C)C(=O)N[C@H](C)[C@@H](O)c1ccccc1)OC)N(C)C(=O)[C@@H](NC(=O)[C@H](C(C)C)N(C)C(=O)OCc1ccc(NC(=O)[C@H](CCCNC(N)=O)NC(=O)[C@@H](NC(=O)CCCCCN2C(=O)CC(SC[C@H](NC(C)=O)C(=O)NCCOCCOCCOCCOCCOCCOCCC(=O)N[C@@H](CCCNC(=N)N)C(=O)N[C@@H](CCCNC(=N)N)C(=O)N[C@@H](CC(C)C)C(=O)N[C@@H](Cc3ccccc3)C(=O)N[C@H]3CSSC[C@@H](C(=O)N[C@H](C(=O)N[C@@H](Cc4c[nH]c5ccccc45)C(=O)N[C@@H](CCCNC(=N)N)C(=O)N[C@@H](CC(=O)O)C(N)=O)[C@@H](C)O)NC(=O)[C@H]([C@@H](C)O)NC(=O)[C@H](CCCCN)NC(=O)[C@@H](Cc4c[nH]c5ccccc45)NC(=O)[C@H](Cc4ccc(O)cc4)NC3=O)C2=O)C(C)C)cc1)C(C)C` (stereo partly drawn) [Example 3, Ac-Cys(MC-Val-Cit-PABC-MMAE)-PEG6-Arg-Arg-Leu-Phe-[Cys-Tyr-D-Trp-Lys-Thr-Cys]-Thr-Trp-Arg-Asp-NH2] (I: Ac-C[PEG6]RRLFCY[dW]KTCTWRD-NH2 / II: V[Cit][PABC][NMeV]V[Dil][Dolaproine]-X2; linker I:1-II:N via Hexanoyl(6-succinimido-3yl); disulfide I:7-I:12): at SSTR2, the activity at 50 µM is 95.4% and a half-maximal effect (EC50) was put at 559 nM.

On SSTR2, `CC[C@H](C)[C@@H]([C@@H](CC(=O)N1CCC[C@H]1[C@H](OC)[C@@H](C)C(=O)N[C@H](C)[C@@H](O)c1ccccc1)OC)N(C)C(=O)[C@@H](NC(=O)[C@H](C(C)C)N(C)C(=O)OCc1ccc(NC(=O)[C@H](CCCNC(N)=O)NC(=O)[C@@H](NC(=O)CCCCCN2C(=O)CC(SC[C@H](NC(C)=O)C(=O)NCCOCCOCC(=O)NCCOCCOCC(=O)NCCOCCOCC(=O)N[C@@H](CCCNC(=N)N)C(=O)N[C@@H](CCCNC(=N)N)C(=O)N[C@@H](CC(C)C)C(=O)N[C@@H](Cc3ccccc3)C(=O)N[C@H]3CSSC[C@@H](C(=O)N[C@H](C(=O)N[C@@H](Cc4c[nH]c5ccccc45)C(=O)N[C@@H](CCCNC(=N)N)C(=O)N[C@@H](CC(=O)O)C(N)=O)[C@@H](C)O)NC(=O)[C@H]([C@@H](C)O)NC(=O)[C@H](CCCCN)NC(=O)[C@@H](Cc4c[nH]c5ccccc45)NC(=O)[C@H](Cc4ccccc4)NC3=O)C2=O)C(C)C)cc1)C(C)C` (stereo partly drawn) [Example 8, Ac-Cys(MC-Val-Cit-PABC-MMAE)-AEEA-AEEA-AEEA-Arg-Arg-Leu-Phe-[Cys-Phe-D-Trp-Lys-Thr-Cys]-Thr-Trp-Arg-Asp-NH2] (I: Ac-C[AEEA][AEEA][AEEA]RRLFCF[dW]KTCTWRD-NH2 / II: V[Cit][PABC][NMeV]V[Dil][Dolaproine]-X2; linker I:1-II:N via Hexanoyl(6-succinimido-3yl); disulfide I:9-I:14) came in with an activity at 50 µM of 98.4% and an EC50 of 404 nM.

As for `CC(C)C[C@H](NC(=O)CNC(=O)c1cc(Cl)ccc1Cl)B1OC(=O)C(CC(=O)O)(CC(=O)O)O1` [Ixazomib Citrate], the T/C (in general, the ratio of treated to control) in experiment [1] (setting [2]) worked out at 38.38%. Further, in experiment [1] (setting [2]), the TGI (usually how far tumour growth fell short of that in controls) is given as 71.76%. The “Tumor Volume (Mean ± SEM)” value in experiment [1] (Day 0) was 109 ± 6 mm3; in experiment [1] (Day 4), 245 ± 23 mm3; in experiment [1] (Day 7), 337 ± 25 mm3; in experiment [1] (Day 11), 452 ± 59 mm3; in experiment [1] (Day 14), 586 ± 100 mm3; in experiment [1] (Day 18), 781 mm3 and 781 ± 177 mm3. The “Tumor Volume (Mean ± SEM)” value is given as 925 ± 226 mm3 in experiment [1] (Day 21), 1,139 ± 271 mm3 in experiment [1] (Day 25) and 1,365 ± 331 mm3 in experiment [1] (Day 28).

In turn, `CC(C)C[C@H](NC(=O)[C@H](CCCNC(=N)N)NC(=O)[C@@H](N)CCCNC(=N)N)C(=O)N[C@@H](Cc1ccccc1)C(=O)N[C@H]1CSSC[C@@H](C(=O)N[C@H](C(=O)N[C@@H](Cc2c[nH]c3ccccc23)C(=O)N[C@@H](CCCNC(=N)N)C(=O)N[C@@H](CC(=O)O)C(N)=O)[C@@H](C)O)NC(=O)[C@H]([C@@H](C)O)NC(=O)[C@H](CCCCN)NC(=O)[C@@H](Cc2c[nH]c3ccccc23)NC(=O)[C@H](Cc2ccc(O)cc2)NC1=O` [SEQ ID No. 1, H-Arg-Arg-Leu-Phe-[Cys-Tyr-D-Trp-Lys-Thr-Cys]-Thr-Trp-Arg-Asp-NH2] (H-RRLFCY[dW]KTCTWRD-NH2; disulfide 5-10) returned an activity at 100 µM at SSTR2 (Max Dose 100000 nM) of 98%. On SSTR2, this molecule gave a concentration giving a half-maximal response (EC50) of 217 nM.
